Assay results published in patent US8742156B2 (priority 2010, dated 2014).
Counter-ions that a name gives are not always drawn. Like-named read-outs stand apart in the source and are kept apart here.

Tests used:
H9N2 (A/Quail/HK/G1/97) = assay type: cell-based, influenza H9N2 virus; conditions: for TCID50/ml H9N2 virus: m.o.i of 2, supernatant 48-hour post-infection
H3N2 (A/H3N2/1174/99) = test: Viral infection of MDCK cells, TCID50 viral titer, H3N2; assay type: cell-based, influenza H3N2 virus; conditions: for TCID50/ml H3N2 virus: m.o.i of 2, supernatant 48-hour post-infection
[1] = system: H1N1 virus (A/HK/54/98 (Tamiflu-sensitive strain)); test: Viral infection of MDCK cells, TCID50 viral titer, H1N1 (Tamiflu-sensitive); assay type: cell-based, Human influenza H1N1 virus; conditions: for TCID50/ml H1N1 virus: m.o.i of 2, supernatant 48-hour post-infection; for viral titers of Tamiflu-sensitive (Tami-S) H1N1 virus decreased (fold): FIG. 1, multiplicity of infection of 0.2, 48-hour post-infection
MDCK cells = test: Cell Viability Test (MTT); assay type: cell-based, canine; conditions: 50 uM, 72 hours
Description: This compound was obtained from the National Cancer Institute, USA. Cell Viability Test: MDCK cells were seeded at 2×10^6/ml in a 96-well plate for 16-24 hours. Compound 58 (50 uM) was added to the cells. DMSO was added to the cells as a control. Cells were incubated at 37° C. and 5% CO2 for 72 hours, and then Thiazolyl Blue Tetrazolium Bromide (MTT) was added to a final concentration of 0.1 mg/ml. After two hours, the culture supernatant was removed and each well was replenished with isopropanol. The MTT metabolic product, formazan, was dissolved in isopropanol for five minutes with shaking. The optical densities of formazan and background were measured at 560 nm and 670 nm, respectively.

Row | SMILES | TCID50/ml H9N2 virus (H9N2 (A/Quail/HK/G1/97); 50 μM) | TCID50/ml H3N2 virus (H3N2 (A/H3N2/1174/99); 50 μM) | TCID50/ml H1N1 virus ([1]; 50 μM) | TCID50/ml H1N1 virus ([1]; 100 μM) | viral titers of Tamiflu-sensitive (Tami-S) H1N1 virus decreased (fold) [1] [fold] | TCID50/ml H9N2 virus (H9N2 (A/Quail/HK/G1/97); 10 μM) | TCID50/ml H9N2 virus (H9N2 (A/Quail/HK/G1/97); 20 μM) | inhibition of replication of H9N2 virus (H9N2 (A/Quail/HK/G1/97); TCID50 results, Table 1A) | cytotoxicity in MDCK cells compared with DMSO (MDCK cells) | Cytotoxicity index (MDCK cells; MDCK cells, MTT, relative to DMSO (1.0)) | TCID50/ml H3N2 virus (H3N2 (A/H3N2/1174/99); 10 μM) | TCID50/ml H3N2 virus (H3N2 (A/H3N2/1174/99); 20 μM) | inhibition of replication of H3N2 virus (H3N2 (A/H3N2/1174/99); TCID50 results, Table 1A) | TCID50/ml H1N1 virus ([1]; 10 μM) | TCID50/ml H1N1 virus ([1]; 20 μM) | inhibitory effects against Tami-S H1N1 virus ([1]; FIG. 1, multiplicity of infection of 0.2) | inhibition of replication of H1N1 virus ([1]; TCID50 results, Table 1A) | virus level suppressed (fold) ([1]; H1N1 tamiflu-sensitive, Table 1B (100 μM))
1 | CCOC(=O)C1=C[C@@H](OC(CC)CC)[C@H](NC(C)=O)[C@@H](N)C1 [Tamiflu, oseltamivir, reference compound] | 9.00 × 10^1 TCID50/ml | 7.24 × 10^3 TCID50/ml | 1.45 × 10^4 TCID50/ml | 1.52 × 10^3 TCID50/ml | 8 |  |  |  |  |  |  |  |  |  |  |  |  | 
2 | N=C(Nc1ccccc1)SCCCSC(=N)Nc1ccccc1 [Compound 58, Carbamimidothioic acid, phenyl-, 1,3-propanediyl ester, dihydrobromide] | 1.90 × 10^2 TCID50/ml | 7.24 × 10^3 TCID50/ml | 4.53 × 10^2 TCID50/ml |  | 5 | 1.14 × 10^3 TCID50/ml | 4.16 × 10^2 TCID50/ml | inhibits the replication | does not display cytotoxicity | 0.916 | 4.61 × 10^4 TCID50/ml | 1.72 × 10^4 TCID50/ml | inhibits the replication | 2.90 × 10^4 TCID50/ml | 1.82 × 10^4 TCID50/ml | potent inhibitory effects | inhibits the replication | 
3 | O=C(Nc1ccc(Nc2ccncc2)cc1)c1ccc(Nc2ccnc3ccccc23)cc1[N+](=O)[O-] [Compound 73, 2-nitro-N-[4-(pyridin-4-ylamino)phenyl]-4-(quinolin-4-ylamino)benzamide] |  |  |  | 2.28 × 10^3 TCID50/ml |  |  |  |  |  |  |  |  |  |  |  |  |  | around 10 fold
